Tests used:
[1] = HIC methods to evaluate ADC hydrophobicity (DAR8 HIC retention time); format: physicochemical; conditions: HIC Method 2
Description: HPLC analysis was carried out under the following measurement conditions: • HPLC system: Waters ACQUITY ARC HPLC System • Detector: measurement wavelength: 280 nm • Column: MABPac HIC-10, 5 μm, 4.6×10 mm (Thermo) • Column temperature: 25° C. • Mobile phase A: 1.5 M ammonium sulfate, 50 mM sodium phosphate, pH 7.0 • Mobile phase B: 50 mM sodium phosphate, pH 7.0 • Gradient program: 20% B—20% B (0 min-1 min), 0% B-0% B (1 min-35 min), 20% B-20% B (35 min-40 min) • Flow rate: 0.5 mL/min
Sample preparation: The sample was diluted with initial mobile phase to 0.5 mg/mL.
DAR8 HIC retention time (min) is an indication of the relative hydrophobicity of an ADC. ADCs with higher DAR8 HIC retention have a higher hydrophobic property.

NCI-H1650 = experiment: ADC direct killing, 3D culture, NCI-H1650; format: cell-based, human; conditions: 6 days
Description: (§1) The base medium for NCI-H1650 is ATCC-formulated RPMI-1640 Medium, ATCC 30-2001. To make the complete growth medium, fetal bovine serum was added to the base medium to a final concentration of 10% (Gibco, 10099-141C). The cell line was grown in a humidified 5% CO2 atmosphere at 37° C., and was regularly tested for the presence of mycoplasma with MycoAlert™ PLUS Mycoplasma Detection Kit (Lonza, LT07-710).
(§2) NCI-H1650, NCI-H1048, MDA-MB-453 (2E3/well) or Capan-1 (4E3/well) cells were seeded into 3D-96-well plates (Corning: 4520) at 80 μl/well and incubated at 37° C., 5% CO2, overnight.
(§3) Fresh growth medium containing the varying concentrations of ADCs was added at 40 µl/well. The cells were incubated at 37° C., 5% CO2, 6 days.
(§4) The cell viability was detected by 3D reagent (Promega, G9683), […]. The plates were allowed to incubate at room temperature for 30 minutes to stabilize the luminescent signal. Then the plates were analyzed with a microplate reader.

Capan-1 = experiment: ADC direct killing, 3D culture, Capan-1; format: cell-based, human; conditions: 6 days
Description: Capan-1 is a cell line with epithelial morphology that was isolated from the pancreas of a person with pancreatic adenocarcinoma, and Capan-1 was purchased from ATCC. The base medium for Capan-1 is ATCC-formulated Iscove's Modified Dulbecco's Medium, Catalog No. 30-2005. To make the complete growth medium, fetal bovine serum was added to the base medium to a final concentration of 20% (Gibco, 10099-141C). The cell line was grown in a humidified 5% CO2 atmosphere at 37° C., and was regularly tested for the presence of mycoplasma with MycoAlert™ PLUS Mycoplasma Detection Kit (Lonza, LT07-710).
as §2, §3, §4

[2] = test system: H1975 xenografts (B7H3 IHC 3+); experiment: ADC in vivo efficacy study, H1975 xenografts; parameters: species or system BALB/c Nude mice; conditions: study (5); 3 mpk (3 mg/kg) i.v. on day 1; day 31
NCI-H1048 = experiment: ADC direct killing, 3D culture, NCI-H1048; format: cell-based, human; conditions: 6 days
Description: as §1, with “NCI-H1048” for “NCI-H1650”, “DMEM:F12 Medium Catalog No. 30-2006.” for “RPMI-1640 Medium, ATCC 30-2001.”
as §2, §3, §4

[3] = test system: NCI-H358:MDA-MB-453-nanoLuc = 10:1; experiment: ADC bystander killing, NCI-H358/MDA-MB-453 (nano-Luc) co-culture; format: cell-based, human; conditions: co-culture 10:1, 3D, 6 days
Description: Method: MDA-MB-453-nanoLuc cell line construction PT67-nanoLuc cells were cultured, then the cell-culture medium (containing the virus (nano-Luc gene)) was collected and filtered. MDA-MB-453 cells were seed in 6-well plates at 1E5 cells/well, and incubated at 37° C., 5% CO2, overnight. The PT67-nanoLuc cell medium and 8 ug/mli polybrene was added. The infection was repeated 3 times, every one day. Then the MDA-MB-453-nanoLuc cells were cultured with the addition of 1 mg/ml Geneticin for 5 days. The MDA-MB-453-nanoLuc cells were collected, and Nano-Glo reagent (Promega: N1120) was added to test the nano-Luc transfection efficiency.
Method: ADC Bystander Killing NCI-H358 & MDA-MB-453-nanoLuc (10:1), or MDA-MB-453-nanoLuc cels alone were seeded into 3D-96-well plates (Corning: 4520) at 80 μl/well, and Incubated at 37° C., 5% CO2, overnight. Fresh growth medium containing the varying concentrations of ADCs was added at 40 μl/well. The cells were incubated at 37° C., 5% CO2, 6 days. The 3D-plates were centrifuged at 1500 rpm, 25° C., […], then the supernatant was discarded.
The […] cell viability was detected by Nano-Glo reagent (Promega: N1120), 150 μl/well. The 3D-plates were allowed to incubate at room temperature for 10 minutes to stabilize the luminescent signal. Then the plates were analyzed with a microplate reader.

[4] = test system: H1650 xenografts (B7H3 IHC 3+); experiment: ADC in vivo efficacy study, H1650 xenografts; parameters: species or system BALB/c Nude mice; conditions: for TGI (%) at T 28: day 28; for TGI (%) at T 30: day 30
Description: Female BALB/c Nude mice were subcutaneously implanted with 3×10^6 H1650 cells per 200 μL PBS/matrigel in the right flank. After inoculation, tumor volumes were determined twice weekly in two dimensions using a caliper, and were expressed in mm^3 using the formula: V=0.5(a×b^2) where a and b are the long and short dimensions of the tumor, respectively.
Partial regression (PR) was defined as tumor volume smaller than 50% of the starting tumor volume on the first day of dosing in three consecutive measurements and complete regression (CR) was defined as tumor volume less than 14 mm^3 in three consecutive measurements. Data is presented as mean tumor volume±standard error of the mean (SEM). Tumor growth inhibition (TGI) is calculated using formula (TGI):
[formula] • treated t=treated tumor volume at time t • treated t0=treated tumor volume at time 0 • placebo t=placebo tumor volume at time t • placebo t0=placebo tumor volume at time 0

ADC3-A: "ADC3-A is the biosimilar ADC of DS7300a (benchmark)"; antibody MABX-9001a, average DAR 3.99
HIC DAR8 RT (min) Method 2 [1]: 21.817 (Meth - od 2) min | EC50 (NCI-H1650; Table 6, NCI-H1650 (High)): 8.2 nM | Emax (%) (NCI-H1650; Table 6, NCI-H1650 (High)): 54.2% | EC50 (NCI-H1650; Table 7, NCI-H1650 (High)): 8.2 nM | Emax (%) (NCI-H1650; Table 7, NCI-H1650 (High)): 54.2% | EC50 (NCI-H1650; Table 8, NCI-H1650 (High)): 10.9 nM | Emax (%) (NCI-H1650; Table 8, NCI-H1650 (High)): 33.1% | EC50 (NCI-H1650; Table 9, NCI-H1650 (High)): 5.7 nM | Emax (%) (NCI-H1650; Table 9, NCI-H1650 (High)): 62.0% | EC50 (NCI-H1650; Table 10, NCI-H1650 (High)): 7.4 nM | Emax (%) (NCI-H1650; Table 10, NCI-H1650 (High)): 61.1% | EC50 (Capan-1; Table 6, Capan-1 (Low)): 4 nM | Emax (%) (Capan-1; Table 6, Capan-1 (Low)): 66.7% | EC50 (Capan-1; Table 7, Capan-1 (Low)): 4 nM | Emax (%) (Capan-1; Table 7, Capan-1 (Low)): 66.7% | EC50 (Capan-1; Table 8, Capan-1 (Low)): 1.7 nM | Emax (%) (Capan-1; Table 8, Capan-1 (Low)): 71.4% | TGI (%) at T 31 [2]: 56% | EC50 (NCI-H1048; Table 9, NCI-H1048 (Low)): 1.2 nM | Emax (%) (NCI-H1048; Table 9, NCI-H1048 (Low)): 98.9% | EC50 (NCI-H1048; Table 10, NCI-H1048 (Low)): 2.6 nM | Emax (%) (NCI-H1048; Table 10, NCI-H1048 (Low)): 99.0% | EC50 ([3]; Table 11): 9.8 nM | Emax (%) bystander killing ([3]; Table 11): 89.1% | EC50 ([3]; Table 12): 9.8 nM | Emax (%) bystander killing ([3]; Table 12): 89.1% | EC50 ([3]; Table 13): 5.4 nM | Emax (%) bystander killing ([3]; Table 13): 82.3% | EC50 ([3]; Table 14): 13 nM | Emax (%) bystander killing ([3]; Table 14): 89.5% | TGI (%) at T 28 ([4]; study (1), 3 mpk (3 mg/kg) i.v. on day 1): 53% | TGI (%) at T 28 ([4]; study (1), 10 mpk (10 mg/kg) i.v. on day 1): 86% | TGI (%) at T 30 ([4]; study (2), 10 mpk (10 mg/kg) i.v. on day 1): 85% | TGI (%) at T 30 ([4]; study (3), 10 mpk (10 mg/kg) i.v. on day 1): 85% | TGI (%) at T 28 ([4]; study (4), 10 mpk (10 mg/kg) i.v. on day 1): 70%
